FAM = 5(6)-carboxyfluorescein
Tested on: NSC-34 cells
Experiment: Evaluation of cell membrane permeability by flow cytometry (fluorescence of FAM taken up by NSC-34 cells)
Format: cell-based, mouse
Details: for median fluorescence intensity (MFI): 10 μM in culture solution, 0.50% DMSO, 37 °C, 5% CO2, flow cytometer detector FL2; for median fluorescence intensity (MFI) / MFI compared with Example 3 (FAM): 20 hours; for MFI compared with Example 3 (FAM): 10 μM, result in words; for cell membrane permeability: peptide fragment, tested as FAM construct, conclusion in words
Procedure: As the eukaryotic cells, NSC-34 cells (mouse motor neuron-like hybrid cell line) were used and the cell membrane permeability of the prepared construct was evaluated.
The NSC-34 cell was cultured in 10% fetal bovine serum (FBS)-containing Dulbecco's modified Eagle's medium (DMEM (Cat No. 044-29765, manufactured by FUJIFILM Wako Pure Chemical Corporation)), which is a culture medium.
The NSC-34 cell that adhered to a culture plate was cleaned with PBS and then, a 0.25%-trypsin/EDTA solution was added thereto, and incubation was performed for three minutes at 37 °C. After the incubation, the aforementioned 10% FBS-containing DMEM was added to deactivate trypsin and then, five-minute centrifugal separation was performed at 150×g to precipitate the cells. After the supernatant generated by the centrifugal separation was removed, the 10% FBS-containing DMEM was added to the precipitate (cell pellet) to prepare a cell suspension of about 2×10^5 cells/mL. The cell suspension was added by 1 mL to a well of a commercially available six-hole (well) plate (manufactured by AGC TECHNO GLASS Co., Ltd.) so as to seed the cell (about 2×10^5 cells/well), and incubation was caried out for about two to three hours until the cell adhered to a bottom surface of the well. After that, the 2 mM sample solution 1 prepared as above was diluted with the 10% FBS-containing DMEM to prepare the sample solution 1 in which the concentration of the sample was 20 μM. Then, 1 mL of the 20 μM sample solution 1 was added to the well (that is, so that the concentration of the construct 1 became 10 μM and the DMSO concentration became 0.50% in the culture solution in the well). The cell was incubated for 20 hours at 37 °C under a 5% CO2 condition.
After the 20-hour incubation, the culture supernatant was removed from the well and the cells in the well were cleaned twice with 1 mL of PBS. Next, 100 μL of the 0.25% trypsin/EDTA solution was added to the well and the incubation was performed for three minutes at 37 °C. After the incubation, 900 μL of the 10% FBS-containing DMEM was added to the well to deactivate the trypsin. The cell suspension in the well was transferred to a tube and the cells were collected. After that, pre-washing was performed additionally, so that the cells remaining in the well were collected in the tube. This tube was subjected to five-minute centrifugal separation at 4 °C under a condition of 210×g. After the centrifugal separation, the supernatant was removed and the precipitate (cell pellet) was suspended (cleaned) with 1 mL of PBS, which was followed by the centrifugal separation under the same condition as that described above. Then, the supernatant was removed and thus, the cells (cell pellet) cultured in a culture medium containing the sample were obtained.
Regarding the obtained cells (cell pellet), the cell membrane permeability was analyzed using a flow cytometer. As the flow cytometer, On-Chip Flowcytometer (manufactured by On-Chip Biotechnologies Co., LTD.) was used.
For such an analysis, the obtained cell pellet was suspended with 50 μL of on-chip T buffer to prepare a cell suspension for analysis.
Using the aforementioned flow cytometer, gating based on forward scatter (FSC) and side scatter (SSC) was performed to set a gate about a cell group to be analyzed, and the fluorescence intensity was measured about the cell group in this gate. Note that the number of cells of the cell group to be analyzed was set to at least 10000, and the analysis was performed. The fluorescence intensity was measured using a fluorescence detector FL2 of the flow cytometer (optimum detection wavelength around 543 nm) capable of detecting the fluorescence wavelength of FAM. Regarding this measurement result, the analysis was performed using commercially available analysis software “FlowJo” (manufactured by TreeStar) to obtain median fluorescence intensity (MFI) of the cell group to be measured (see Table 1). […]

Row | Substance | median fluorescence intensity (MFI) | MFI compared with Example 3 (FAM) | cell membrane permeability
1 | 5(6)-carboxyfluorescein [Example 3, reference compound] | 7.28 |  | 
2 | Ac-VLSRVQLREKLTR-FAM (Ac-VLSRVQLREKLTR-{FAM}) [Example 2] | 31.3 | higher | 
3 | Ac-VLSRVVQLLREKLTRKK-FAM [Example 1] | 30.4 | higher | 
4 | VLSRVQLREKLTR [SEQ ID No.: 2, peptide fragment (synthetic peptide) having cell membrane permeability] |  |  | has the cell membrane permeability
5 | VLSRVVQLLREKLTRKK [SEQ ID No.: 1, peptide fragment (synthetic peptide) having cell membrane permeability] |  |  | has the cell membrane permeability

Reference: US20260347401A1, “Peptide Fragment And Use Thereof” (TOAGOSEI CO., LTD., priority 2023, published 2026)
